target: Serum paraoxonase/arylesterase 1 (Homo sapiens, UniProt P27169); test: Paraoxonase Activity Assay; settings: pH 10.5; 25 °C
Description: The enzyme assay was based on the estimation of p-nitrophenol at 412nm. The molar extinction coefficient of p-nitrophenol was used to calculate enzyme activity.

Sequence of Serum paraoxonase/arylesterase 1 (P27169 whole entry): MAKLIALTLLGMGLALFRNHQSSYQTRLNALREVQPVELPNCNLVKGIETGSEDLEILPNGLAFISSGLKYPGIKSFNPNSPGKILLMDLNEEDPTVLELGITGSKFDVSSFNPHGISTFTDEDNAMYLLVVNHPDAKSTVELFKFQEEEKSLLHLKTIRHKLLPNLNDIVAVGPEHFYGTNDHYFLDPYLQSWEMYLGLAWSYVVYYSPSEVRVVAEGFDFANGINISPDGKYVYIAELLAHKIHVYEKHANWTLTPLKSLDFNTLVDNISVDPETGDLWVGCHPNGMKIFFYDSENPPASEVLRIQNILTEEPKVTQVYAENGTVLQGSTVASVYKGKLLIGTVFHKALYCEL

| SMILES | IC50 | Ki |
| --- | --- | --- |
| CN1C(C(=O)Nc2ccccn2)=C(O)c2sc(Cl)cc2S1(=O)=O [Lornoxicam] | 136 µM | 9 µM |
| CN1C(C(=O)Nc2ccccn2)=C(O)c2sccc2S1(=O)=O [Tenoxicam] | 340 µM | 306 µM |
| CCCC1CC(C(=O)NC(C(C)O)C2OC(SC)C(O)C(O)C2O)N(C)C1 (stereo not given) [Lincomycine] | 9640 µM | 11100 µM |
| COc1ccc2c(c1)c(CC(=O)O)c(C)n2C(=O)c1ccc(Cl)cc1 [indometacin] | 195 µM | 97 µM |
| CC(C(=O)O)c1cccc(C(=O)c2ccccc2)c1 (stereo not given) [2-(3-benzoylphenyl)propanoic acid] | 6230 µM | 13000 µM |

Reference: BindingDB's records for doi:10.1080/14756360802608351 (Ataturk University, 2009)
